Reference: US20150261911A1, “CRYSTAL STRUCTURE” (Heptares Therapeutics Limited, priority 2014, published 2015)
Positions count from the first letter of the chain named. Numbers in names are those of the source. Entries after “also recorded” stand apart in the source; their conditions may differ.

T1: CRF1R F203A(3.44) (Homo sapiens, UniProt P34998, F203A)
T1 construct: expressed in transfected cells; host or cells: HEK293T, transient; whole cells solubilised in DDM
T1 sequence (P34998 with tags, fused parts or gaps F203A): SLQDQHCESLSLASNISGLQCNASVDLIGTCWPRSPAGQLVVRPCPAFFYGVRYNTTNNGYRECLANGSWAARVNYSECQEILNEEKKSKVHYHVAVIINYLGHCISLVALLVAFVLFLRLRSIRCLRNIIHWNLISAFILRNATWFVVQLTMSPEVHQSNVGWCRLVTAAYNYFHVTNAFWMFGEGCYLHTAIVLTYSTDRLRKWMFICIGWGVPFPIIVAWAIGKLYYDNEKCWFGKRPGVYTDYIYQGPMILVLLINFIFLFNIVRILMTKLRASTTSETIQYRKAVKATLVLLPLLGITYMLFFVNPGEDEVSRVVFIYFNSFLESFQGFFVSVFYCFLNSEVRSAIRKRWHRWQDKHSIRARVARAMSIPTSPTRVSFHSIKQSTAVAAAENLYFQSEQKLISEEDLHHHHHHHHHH

T2: CRF1R L280A(5.47) (Homo sapiens, UniProt P34998, L280A)
T2 construct: expressed in transfected cells; host or cells: HEK293T, transient; whole cells solubilised in DDM
T2 sequence (P34998 with tags, fused parts or gaps L280A): T1 sequence (P34998 with tags, fused parts or gaps F203A) with A180F, L257A

T3: CRF1R N283A(5.50) (Homo sapiens, UniProt P34998, N283A)
T3 construct: expressed in transfected cells; host or cells: HEK293T, transient; whole cells solubilised in DDM
T3 sequence (P34998 with tags, fused parts or gaps N283A): T1 sequence (P34998 with tags, fused parts or gaps F203A) with A180F, N260A

T4: CRF1R Q355A(7.49) (Homo sapiens, UniProt P34998, Q355A)
T4 construct: expressed in transfected cells; host or cells: HEK293T, transient; whole cells solubilised in DDM
T4 sequence (P34998 with tags, fused parts or gaps Q355A): T1 sequence (P34998 with tags, fused parts or gaps F203A) with A180F, Q332A

B1: CRF1R StaR: thermostabilized CRF1R with 12 mutations: V120A, L144A, W156A, S160A, S222A, K228A, F260A, I277A, Y309A, F330A, S349A, Y363A (protein)
chain: MGGHPQLRLVKALLLLGLNPVSASLQDQHCESLSLASNISGLQCNASVDLIGTCWPRSPAGQLVVRPCPAFFYGVRYNTTNNGYRECLANGSWAARVNYSECQEILNEEKKSKVHYHVAAIINYLGHCISLVALLVAFVLFLRARSIRCLRNIIHANLIAAFILRNATWFVVQLTMSPEVHQSNVGWCRLVTAAYNYFHVTNFFWMFGEGCYLHTAIVLTYATDRLRAWMFICIGWGVPFPIIVAWAIGKLYYDNEKCWAGKRPGVYTDYIYQGPMALVLLINFIFLFNIVRILMTKLRASTTSETIQARKAVKATLVLLPLLGITYMLAFVNPGEDEVSRVVFIYFNAFLESFQGFFVSVFACFLNSEVRSAIRKRWHRWQDKHSIRARVARAMSIPTSPTRVSFHSIKQSTAVAAAENLYFQSEQKLISEEDLHHHHHHHHHH
modifications: C-terminal tag
B2: CRF1R wild type: wild-type human corticotropin-releasing factor receptor 1 (FIG. 12, SEQ ID NO:18) (protein)
chain: MGGHPQLRLVKALLLLGLNPVSASLQDQHCESLSLASNISGLQCNASVDLIGTCWPRSPAGQLVVRPCPAFFYGVRYNTTNNGYRECLANGSWAARVNYSECQEILNEEKKSKVHYHVAVIINYLGHCISLVALLVAFVLFLRLRSIRCLRNIIHWNLISAFILRNATWFVVQLTMSPEVHQSNVGWCRLVTAAYNYFHVTNFFWMFGEGCYLHTAIVLTYSTDRLRKWMFICIGWGVPFPIIVAWAIGKLYYDNEKCWFGKRPGVYTDYIYQGPMILVLLINFIFLFNIVRILMTKLRASTTSETIQYRKAVKATLVLLPLLGITYMLFFVNPGEDEVSRVVFIYFNSFLESFQGFFVSVFYCFLNSEVRSAIRKRWHRWQDKHSIRARVARAMSIPTSPTRVSFHSIKQSTAVAAAENLYFQSEQKLISEEDLHHHHHHHHHH

Experiments:
CRF1R F203A(3.44) = biological target: T1, CRF1R F203A(3.44); assay: Solubilised whole cell ligand binding, alanine mutagenesis; settings: Phe203^3.44Ala
Method: (§1) HEK293T cells transiently transfected with CRF1R constructs were incubated in buffer (50mMTris-HCl pH 7.5, 150mMNaCl, EDTA-free protease inhibitors) with 30 nM [^3H]CP-376395, and 120 nM cold CP-376395 (Tocris) for 18 hours at room temperature. Reactions were transferred to ice and all subsequent steps performed at 4° C. Cells were solubilized in 1% (w/v) n-dodecyl-β-D-maltopyranoside (DDM, Affymetrix) for 1 hour and crude lysates cleared by centrifugation at 16.000×g for 15 minutes. Thermostability of the receptor was measured by incubation at varying temperatures for 30 minutes followed by separation of excess and unbound radioligand by gel filtration. Levels of ligand-bound receptor were then determined using a liquid scintillation counter.
(§2) For saturation binding experiments, membranes isolated from HEK293T cells transiently expressing wild-type CRF1R (15 μg/well), CRF1R StaR (6 μg/well), CRF1R StaR with T4L fusion (20 μg/well), and CRF1R-#105 (20 μg/well) were incubated in buffer (50mMTris-HCl pH 7.5, 150 mM NaCl, 0.1% (w/v) PEI, EDTA-free protease inhibitors) with [^3H]CP-376395 (0-60 nM) in the presence or absence of 30 uM cold CP-376395 in a final volume of 500 μl. Final DMSO concentration in each reaction was 5% (v/v). Membranes were incubated for 18 hours at room temperature before being terminated by rapid filtration through 96-well GF/C UniFilter plates pre-soaked in 0.3% (w/v) PEI, followed by washing with PBS with 0.15% (w/v) CHAPS. Plates were dried, 50 μl Ultima Gold-F added per well and bound ligand measured using a Packard Microbeta counter. Data were analyzed using a global fitted one-site binding hyperbola in GraphPad Prism v5 to generate Kd. For solubilized whole cell ligand binding experiments, HEK293T cells transiently expressing eGFP-tagged wild-type CRF1R or single point mutants were treated as described above for thermostability experiments, without the 30 minute heating step. Specific binding was determined by subtracting untransfected controls. Expression of each construct was quantified by eGFP fluorescence of whole cells measured at Ex/Em of 488/520 nm.

CRF1R L280A(5.47) = biological target: T2, CRF1R L280A(5.47); assay: as above; settings: Leu280^5.47Ala
Method: as §1, §2

CRF1R N283A(5.50) = biological target: T3, CRF1R N283A(5.50); assay: as above; settings: Asn283^5.50Ala
Method: as §1, §2

CRF1R Q355A(7.49) = biological target: T4, CRF1R Q355A(7.49); assay: as above; settings: Gln355^7.49 substituted with alanine
Method: as §1, §2

[1] = Thermostability measurement of CRF1R constructs solubilised in DDM, read out by [3H]CP-376395 binding; assay type: physicochemical, human; settings: measured using [3H]CP-376395 binding, mean of four independent experiments, standard deviation in parentheses
Method: as §1

| Molecule | antagonist binding after mutation to alanine (CRF1R F203A(3.44)) | antagonist binding after mutation to alanine (CRF1R L280A(5.47)) | ligand binding after mutation to alanine (CRF1R N283A(5.50)) | CP-376395 binding after substitution with alanine (CRF1R Q355A(7.49)) | Mean Tm [1] |
| --- | --- | --- | --- | --- | --- |
| CCC(CC)Nc1cc(C)nc(Oc2c(C)cc(C)cc2C)c1C [CP-376395] | negligible or no binding detected | negligible or no binding detected | complete loss of ligand binding; also recorded: negligible or no binding detected | did not affect |  |
| B1 |  |  |  |  | 44.7 (2.2) ° C. |
| B2 |  |  |  |  | 18.4 (2.0) ° C. |
